27 molecules from ChEMBL document CHEMBL3217652, “Synthesis and SAR of 2,4-diaminopyrimidines as potent c-jun N-terminal kinase inhibitors” (Medchemcomm, 2012) can be followed below.

SMILES strings stand for the structures. The source made the active and inactive calls. The calls are words filed in the database; no cut-off is given here.

The target of data set [1] is Mitogen-activated protein kinase 9 (Homo sapiens, UniProt P45984). In words: Inhibition of JNK2 (unknown origin) using biotinylated ATF2 by HTRF method.
Data set [2] deals with Mitogen-activated protein kinase 10 (Homo sapiens, UniProt P53779). In words: Inhibition of JNK3 (unknown origin) using biotinylated ATF2 by HTRF method.
Data set [3] can be described thus: Inhibition of JNK in rat INS cells assessed as inhibition of c-jun phosphorylation. The format is cell-based.
In data set [4] the target is T1, c-Jun N-terminal kinase, JNK (Homo sapiens, UniProt P45983+P53779+P45984). To be noted: U-87MG ATCC.
Description: Inhibition of JNK in human U87MG cells overexpressing EGFR V3 mutant assessed as inhibition of c-jun phosphorylation at 0.1 to 3 uM after 6 hrs by Western blotting analysis
Data set [5] in a line: Half life in Sprague-Dawley rat at 1 mg/kg, iv and 2 mg/kg, po by LC-MS/MS analysis. The format is ADME, organism-based. To be noted: in vivo.
The nature of data set [6]: Clearance in Sprague-Dawley rat at 1 mg/kg, iv and 2 mg/kg, po by LC-MS/MS analysis. The note with it: in vivo. It counts as ADME, organism-based.
Data set [7] is described as follows: (§1) AUC in Sprague-Dawley rat at 2 mg/kg, po by LC-MS/MS analysis. The format is ADME, organism-based, Plasma. More on the design: dose 2 mg/kg, route oral. To be noted: Sprague-Dawley, plasma.
Data set [8] can be described thus: (§2) Oral bioavailability in Sprague-Dawley rat at 2 mg/kg by LC-MS/MS analysis. It counts as ADME, organism-based. To be noted: Sprague-Dawley, in vivo.
Data set [9] can be described thus: Plasma concentration in C57Bl6 mouse at 10 mg/kg after 2 hrs by LC-MS/MS analysis. Also on record: dose 10 mg/kg. It counts as ADME, organism-based.
The nature of data set [10]: Drug uptake in C57Bl6 mouse brain at 10 mg/kg after 2 hrs by LC-MS/MS analysis. The format is ADME, organism-based. Also on record: dose 10 mg/kg. The note with it: read-out: Drug uptake.
For data set [11], the system named is Brain. Nature of the data set: Drug penetration in C57Bl6 mouse brain at 10 mg/kg by LC-MS/MS analysis relative to control. The format is ADME, organism-based. Also on record: dose 10 mg/kg. To be noted: in vivo.
Data set [12] relates to Rattus norvegicus. The description is as §1. The format is ADME, organism-based, Plasma. Also on record: dose 2 mg/kg, route oral. To be noted: in vivo.
In data set [13] the test system is Rattus norvegicus. The description is as §2. The format is ADME, organism-based. The note with it: in vivo.
In data set [14] the target is T1, c-Jun N-terminal kinase, JNK. Nature of the data set: Inhibition of JNK in human U87MG cells overexpressing EGFR V3 mutant assessed as inhibition of c-jun phosphorylation after 6 hrs by ELISA. The format is cell-based. The note with it: u-87mg atcc.

Sequence of Mitogen-activated protein kinase 10 (P53779 whole entry): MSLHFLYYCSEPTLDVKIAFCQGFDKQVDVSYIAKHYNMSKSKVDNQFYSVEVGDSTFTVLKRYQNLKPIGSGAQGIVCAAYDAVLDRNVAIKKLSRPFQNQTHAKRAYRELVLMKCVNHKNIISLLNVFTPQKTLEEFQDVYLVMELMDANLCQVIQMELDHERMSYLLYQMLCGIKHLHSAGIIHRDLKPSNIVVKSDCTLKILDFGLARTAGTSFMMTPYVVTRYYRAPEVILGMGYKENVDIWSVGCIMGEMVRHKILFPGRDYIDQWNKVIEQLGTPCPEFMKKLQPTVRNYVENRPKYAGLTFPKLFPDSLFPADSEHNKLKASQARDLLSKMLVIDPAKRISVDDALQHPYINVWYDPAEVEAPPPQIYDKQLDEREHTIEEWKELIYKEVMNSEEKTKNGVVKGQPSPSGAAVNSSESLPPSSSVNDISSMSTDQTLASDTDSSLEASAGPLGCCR
Sequence of Mitogen-activated protein kinase 9 (P45984 whole entry): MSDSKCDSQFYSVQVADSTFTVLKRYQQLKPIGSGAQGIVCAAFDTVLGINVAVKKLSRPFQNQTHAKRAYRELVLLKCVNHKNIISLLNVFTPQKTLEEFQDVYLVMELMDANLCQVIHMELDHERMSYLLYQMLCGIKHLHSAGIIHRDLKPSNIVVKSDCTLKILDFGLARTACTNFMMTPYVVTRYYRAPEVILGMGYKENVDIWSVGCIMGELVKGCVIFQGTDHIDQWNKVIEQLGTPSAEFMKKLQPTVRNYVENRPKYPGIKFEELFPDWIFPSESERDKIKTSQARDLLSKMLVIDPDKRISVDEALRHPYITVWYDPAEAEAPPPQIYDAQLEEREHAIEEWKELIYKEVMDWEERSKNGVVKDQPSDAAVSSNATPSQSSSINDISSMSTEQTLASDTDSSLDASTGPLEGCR

For `CNC(=O)c1ccccc1Nc1cc(Nc2ccc(N3CCOCC3)cc2OC)ncc1Cl`, the IC50 in [1] is 50 nM; in [2], 83 nM.
For the molecule `CNC(=O)c1ccccc1Nc1nc(Nc2ccc(N3CCOCC3)cc2OC)ncc1Cl`, the half-maximal inhibitory concentration (IC50) in data set [3] worked out at 485 nM. Also, in data set [4], the inhibition result is “Active”.
In the case of `NC(=O)c1ccccc1Nc1nc(Nc2ccc(F)cc2)ncc1Cl`, the values for the half-maximal inhibitory concentration (IC50) in [1] and in [2] were 2.5 nM and 1.2 nM, respectively.
For `N#Cc1ccc(Nc2ncc(Cl)c(Nc3ccccc3C(N)=O)n2)cc1`, in that order: 0.71 nM and 0.77 nM.
Regarding `CNC(=O)c1ccccc1Nc1cc(Nc2ccc(N3CCOCC3)cc2OC)ncc1F`, the 50% inhibitory concentration (IC50) in data set [1] came out at 590 nM; in data set [2] it was 320 nM.
On to `NC(=O)c1ccccc1Nc1nc(Nc2ccc(N3CCOCC3)cc2)ncc1Cl`, for which the results for the IC50 in data set [1] and in [2] were 1 nM and 0.28 nM, respectively. In data set [5], this molecule had a half-life of 1 h. For the same molecule, in data set [6], the clearance amounted to 59 mL/min/kg. For the same molecule, the exposure (AUC) in [7] was determined as 0.1 µM·h. In data set [8], this molecule returned a bioavailability of 8%. The concentration at 2 h was 840 nM in [9] and 830 nM in data set [10]. In [11], the Drug uptake is reported as 100%.
`COc1cc(Nc2cc(Nc3ccccc3C(N)=O)ccn2)ccc1N1CCOCC1` displayed an IC50 in data set [2] of 132 nM.
For `COc1cc(Nc2ncc(Cl)c(Nc3ccccc3C(N)=O)n2)ccc1N1CCOCC1`, the IC50 in [1] came out at 0.68 nM; in [2], 0.28 nM. In [5], this molecule had a half-life of 1 h. The exposure (AUC) in data set [12] is 1.3 µM·h. In addition, the F in data set [13] came out at 17%. For the same molecule, the concentration at 2 h in data set [9] is 2600 nM; in [10] it was 800 nM. In data set [11], this molecule showed a Drug uptake of 31%. The 50% effective concentration (EC50) in data set [14] amounted to 23 nM. In data set [4], the inhibition entry is “Active”.
For `NC(=O)c1ccccc1Nc1nc(Nc2ccc(N3CCOCC3)cc2F)ncc1Cl`, the IC50 in data set [1] amounted to 0.6 nM; in [2], 0.3 nM.
Consider `CNC(=O)c1ccccc1Nc1cc(Nc2ccc(N3CCOCC3)cc2OC)ncc1C(F)(F)F` [VS-4718], for which the IC50 was 120 nM in [1], 160 nM in data set [2] and above 3000 nM in [3].
With `COc1cc(N2CCOCC2)ccc1Nc1ncc(Cl)c(Nc2ccccc2C(N)=O)n1`, the concentration for half-maximal inhibition (IC50) in data set [1] came to 3 nM; in [2] it was 0.78 nM; in data set [3], 3 nM. The same molecule showed a half-life in data set [5] of 1 h. Moreover, the area under the curve (AUC) in data set [12] stood at 0.4 µM·h. In data set [13], the F was 30%. The concentration at 2 h in data set [9] came out at 5500 nM; in data set [10] it was 930 nM. In addition, the Drug uptake in data set [11] came to 17%.
Molecule `CN(C)CCNC(=O)c1ccccc1Nc1ccnc(Nc2ccc(N3CCOCC3)cc2)c1` displayed an IC50 in [2] above 20000 nM.
As for `CNC(=O)c1ccccc1Nc1cc(Nc2ccc(N3CCOCC3)cc2OC)ncc1Br`, the values for the IC50 in data set [1] and in data set [2] were 82 nM and 68 nM, respectively.
For the molecule `O=C(Nc1ccccc1)c1ccccc1Nc1ccnc(Nc2ccc(N3CCOCC3)cc2)c1`, the IC50 in data set [2] was determined as 12000 nM.
Same read-out and setting: the same measure for `CNC(=O)c1ccccc1Nc1ccnc(Nc2ccc(N3CCOCC3)cc2)c1`: 3100 nM.
`Cc1cc(Nc2ncc(Cl)c(Nc3ccccc3C(N)=O)n2)ccc1N1CCOCC1`: the IC50 in [1] worked out at 0.69 nM; in [2], 0.31 nM.
For `NC(=O)c1ccccc1Nc1nc(Nc2ccc(N3CCCC3=O)cc2)ncc1Cl`, the IC50 in data set [1] was 0.24 nM; in data set [2], 0.16 nM. In data set [5], this molecule showed a half-life of 0.6 h. Also, the clearance in data set [6] is 10 mL/min/kg. Besides, the exposure (AUC) in [7] is 0.2 µM·h. For the same molecule, in [8], the bioavailability stood at 3%. The concentration at 2 h was 680 nM in [9] and 15 nM in data set [10]. Further, in data set [11], the Drug uptake is listed as 2%.
Consider `COc1ccc(Nc2ncc(Cl)c(Nc3ccccc3C(N)=O)n2)cc1`, for which the figures for the IC50 in data set [1] and in data set [2] were 1 nM and 0.42 nM, respectively.
`COc1cc(N2CCOCC2)ccc1Nc1cc(Nc2ccccc2C(=O)N(C)C)c(C(F)(F)F)cn1` had a concentration for half-maximal inhibition (IC50) in [2] of 1000 nM.
As for `CNC(=O)c1ccccc1Nc1cc(Nc2ccc(N3CCOCC3)cc2)ncc1C(F)(F)F`, the half-inhibitory concentration (IC50) is 90 nM in data set [1] and 61 nM in [2].
Regarding `CNC(=O)c1ccccc1Nc1cc(Nc2ccc(N3CCOCC3)cc2OC)ncc1C#N`, the 50% inhibitory concentration (IC50) in data set [1] is above 3000 nM; in data set [2], 510 nM.
Regarding `NC(=O)c1ccccc1Nc1nc(Nc2ccc(Cl)cc2)ncc1Cl`, the concentration for half-maximal inhibition (IC50) in [1] came out at 34 nM; in data set [2], 2.5 nM.
Regarding `COc1cc(N2CCOCC2)ccc1Nc1cc(Nc2ccccc2C(N)=O)ccn1`, in [2], the IC50 stood at 374 nM.
On to `NC(=O)c1ccccc1Nc1nc(Nc2ccc(N3CCOCC3)c(F)c2)ncc1Cl`, for which the half-inhibitory concentration (IC50) in [1] was 0.51 nM; in [2], 0.25 nM.
Regarding `O=C1NCc2cccc(Nc3ccnc(Nc4ccc(N5CCOCC5)cc4)c3)c21`, in [2], 1800 nM corresponded to half-maximal inhibition (IC50).
In the case of `NC(=O)c1ccccc1Nc1ccnc(Nc2ccc(N3CCOCC3)cc2)c1`, the half-inhibitory concentration (IC50) in data set [1] turned out to be 329 nM; in data set [2], 160 nM.
As for `O=C(NCc1ccccc1)c1ccccc1Nc1ccnc(Nc2ccc(N3CCOCC3)cc2)c1`, in data set [2], the IC50 was above 20000 nM.
